According to patent US5939403A, “Keratan sulfate oligosaccharide fraction and pharmaceutical containing the same” (Seikagaku Corporation, priority 1994, dated 1999):

Legend:
[1] = tested on: foot edema reversed passive Arthus reaction; assay: Foot edema reversed passive Arthus reaction; format: in vivo, Male Crj:SD rats
Procedure: The effect of the keratan sulfate oligosaccharide was examined on the foot edema reversed passive Arthus reaction of rats, which is a type III allergic inflammation model. That is, the rabbit antiovalbumin serum was subcutaneously administered to the planta of the rats which were previously subjected to the administration of the test substances, furthermore ovalbumin was administered by injection into the caudal vein thereof to induce inflammation (edema), and the inhibitory effect on edema of the test substances was examined.
Male Crj:SD rats of five weeks old were subjected to a fast of about 17 hours after a week period of quarantine, and, before inducing inflammation, subjected to the administration of the purified keratan sulfate tetrasaccharide (I) which was prepared in Example 1, indomethacin (Sigma; Lot No. 19F0018), or dexamethasone (Banyu Pharmaceutical); Decadron injection; Lot No. 8D307P) as the test substances, or saline (Otsuka Pharmaceutical; Lot No. K3H72) as the negative control. The keratan sulfate tetrasaccharide (I) and dexamethasone were dissolved in saline, respectively, and the indomethacin was dissolved in 0.5% sodium carboxymethylcellulose (CMC-Na; Wako Pure Chemical Industries; Lot No. PTN1418) in use. The volume of dose was 0.5 ml per 100 g weight in each test. Concerning the route of administration, the keratan sulfate tetrasaccharide (I), saline, and dexamethasone were administered from the caudal vein, and the indomethacin was orally administered. And the substances except for indomethacin were administered by the blind method.
The dose and administration schedule of each test substance were as follows. Each group consisted of five animals.
The rabbit antiovalbumin serum was subcutaneously administered to each of the rats described above on the planta thereof, and ovalbumin was further administered by injection into the caudal vein to induce inflammation foot edema. The antiserum used was prepared as follows. That is, to the regions of back of rabbits, 1 ml of the equivalently mixed solution (emulsion) of the saline containing 2% ovalbumin (10 mg per one animal, Egg Albumin 5×Cryst, Lot No. P93601; Seikagaku Corporation) and the Freund's complete adjuvant (FCA) was intradermally injected once a week three times totally to subject themselves to sensitization. About 34 days after the last sensitization, the blood was drawn to obtain the antiserum. The antibody titer of the antiserum obtained was determined by the double layer method. Namely, the determination was performed using the white precipitation reaction of the antiserum diluted with saline and the saline containing 0.1% ovalbumin (1 mg/ml) as the indicator. As a result, the antibody titer of the antiserum obtained was x2^7.
After the period which is designed for each group, each 0.1 ml of the sixfold diluted antiserum was subcutaneously administered to the planta of left rear foot of the rats which were subjected to the administration of each test substance. Then, the saline containing 0.5% ovalbumin (25 mg/5 ml/kg) was administered into the caudal vein to induce inflammation. The volume of the treated feet in each group was determined before inducing inflammation, and one, two, three and four hours after inducing inflammation by a foot volume determining device (TK-101, Unicom) to yield the foot edematization rate from the difference from the value before the induction, and the edematization inhibitory rate of the test substance administered group to the control group was calculated. In each edematization rate obtained, the difference between the averages was tested by the minimum significant difference test. The foot edematization rate and the edematization inhibitory rate of each administered group are shown in Table 9, and the foot edematization rate of the administered groups which was subjected to the administration of the agent at five minutes and at three hours before inducing inflammation are shown in FIG. 6 and FIG. 7, respectively. […]

carrageenin pleurisy = assay: Carrageenin pleurisy model; format: in vivo, Female S.D. rats; details: dexamethasone acetate 150 μg/kg s.c.; six hours
Procedure: The effect of the keratan sulfate oligosaccharide was examined with the carrageenin pleurisy model of rats which is generally used for evaluation of anti-inflammatory agents.
Female S.D. rats (n=37) of about 150 to 170 g weight were used for the test. The λ-carrageenin (Sigma) was dissolved in saline to a concentration of 2%, and the solution was filtered with a 0.8 μm filter. The carrageenin solution obtained was intrathoracically administered at 100 μl/animal to prepare the pleurisy model.
To the pleurisy model of rats (n=19) described above, the keratan sulfate tetrasaccharide (I) dissolved in PBS was subcutaneously (s.c.) administered in 20 mg/kg or 10 mg/kg dose. And as the positive control, steroid (dexamethasone acetate; Banyu Pharmaceutical) was subcutaneously administered to the eight rats described above in 150 μg/kg which was the clinical dose. As the negative control, PBS was subcutaneously administered to the 10 rats. Each administration was carried out immediately after the administration of carrageenin.
Each rat was anatomized six hours after the administration of λ-carrageenin. The thoracic cavity of the rats was opened to collect the retained pleural fluid using a 2-ml syringe with probe. After that, inside of the thoracic cavity was washed with 1 ml of saline, and the washing solution was recovered. The volume of the pleural fluid recovered with the syringe was determined, and the number of leukocyte (cell number) in the pleural fluid was determined by an automatic cytometer. The results are be shown in FIG. 8 and FIG. 9, respectively. In the figures, * and ** represent that they have the significant difference with p<0.05 and p<0.01, respectively (wherein "p" means a level of significance by the Duncan test).

C[C@@H]1C[C@H]2[C@@H]3CCC4=CC(=O)C=C[C@]4(C)[C@@]3(F)[C@@H](O)C[C@]2(C)[C@@]1(O)C(=O)CO [Dexamethasone, dexamethasone, reference compound]
Inhibitory Rate ([1]; 1 Hour Later, dexamethasone 1 mg/kg i.v. at 3 hours before inducing edema): 47.8% | Edematization Rate ([1]; 1 Hour Later, dexamethasone 1 mg/kg i.v. at 3 hours before inducing edema, P < 0.01, control 40.9): 21.3 ± 3.1% | Inhibitory Rate ([1]; 2 Hours Later, dexamethasone 1 mg/kg i.v. at 3 hours before inducing edema): 31.7% | Edematization Rate ([1]; 2 Hours Later, dexamethasone 1 mg/kg i.v. at 3 hours before inducing edema, P < 0.01, control 46.3): 31.6 ± 2.2% | Inhibitory Rate ([1]; 3 Hours Later, dexamethasone 1 mg/kg i.v. at 3 hours before inducing edema): 39.9% | Edematization Rate ([1]; 3 Hours Later, dexamethasone 1 mg/kg i.v. at 3 hours before inducing edema, P < 0.01, control 51.2): 30.7 ± 1.5% | Inhibitory Rate ([1]; 4 Hours Later, dexamethasone 1 mg/kg i.v. at 3 hours before inducing edema): 58.1% | Edematization Rate ([1]; 4 Hours Later, dexamethasone 1 mg/kg i.v. at 3 hours before inducing edema, P < 0.01, control 44.9): 18.8% | foot edematization rate, significance (result in words) ([1]; dexamethasone 1 mg/kg, three hours before): significantly low values were observed at any determination point between one and four hours after inducing inflammation

COc1ccc2c(c1)c(CC(=O)O)c(C)n2C(=O)c1ccc(Cl)cc1 [Indomethacin, indomethacin, reference compound]
Inhibitory Rate ([1]; 1 Hour Later, 5 mg/kg oral at 30 minutes before inducing edema): 13.5% | Edematization Rate ([1]; 1 Hour Later, 5 mg/kg oral at 30 minutes before inducing edema, control 40.9): 35.4 ± 1.6% | Inhibitory Rate ([1]; 2 Hours Later, 5 mg/kg oral at 30 minutes before inducing edema): 17.5% | Edematization Rate ([1]; 2 Hours Later, 5 mg/kg oral at 30 minutes before inducing edema, P < 0.05, control 46.3): 38.2 ± 2.9% | Inhibitory Rate ([1]; 3 Hours Later, 5 mg/kg oral at 30 minutes before inducing edema): 9.0% | Edematization Rate ([1]; 3 Hours Later, 5 mg/kg oral at 30 minutes before inducing edema, control 51.2): 46.4 ± 2.8% | Inhibitory Rate ([1]; 4 Hours Later, 5 mg/kg oral at 30 minutes before inducing edema): 13.8% | Edematization Rate ([1]; 4 Hours Later, 5 mg/kg oral at 30 minutes before inducing edema, P < 0.05, control 44.9): 38.7 ± 3.1% | foot edematization rate, significance (result in words) ([1]; indomethacin 5 mg/kg oral, 30 minutes before): significantly low values were observed after two hours and after four hours

CC(=O)OCC(=O)[C@@]1(O)[C@H](C)C[C@H]2[C@@H]3CCC4=CC(=O)C=C[C@]4(C)[C@@]3(F)[C@@H](O)C[C@@]21C [Dexamethasone Acetate, dexamethasone acetate, reference compound]
number of leukocyte in pleural fluid (FIG. 9) (carrageenin pleurisy): significantly less than that in the control group | quantity of pleural fluid (FIG. 8) (carrageenin pleurisy): significantly less than that in the negative control group
